Assay results from publication PMC3787745, “Yeast Mnn9 is both a priming glycosyltransferase and an allosteric activator of mannan biosynthesis” (Open Biology, 2013).

Molecular target: T1, ScVan1 with ScMnn9 (M-Pol I complex) (Saccharomyces cerevisiae, UniProt P23642)
T1 construct: gene VAN1; separately expressed glycosyltransferase domains (Van1 87-535, Mnn9 93-395) mixed; heterodimer; MBP-His6 tags cleaved by TEV; E. coli BL21(DE3) pLysS; with Mannan polymerase complexes subunit MNN9
Experiment: FACE gel of ANTS-labelled products
Type: biochemical
Details: donor 1.2 mM; acceptor 10 mM α-1,6-mannobiose; 10 mM MnCl2; 20 mM HEPES pH 7.5; 30°C; both subunits wild-type

T1 sequence (P23642 87-535): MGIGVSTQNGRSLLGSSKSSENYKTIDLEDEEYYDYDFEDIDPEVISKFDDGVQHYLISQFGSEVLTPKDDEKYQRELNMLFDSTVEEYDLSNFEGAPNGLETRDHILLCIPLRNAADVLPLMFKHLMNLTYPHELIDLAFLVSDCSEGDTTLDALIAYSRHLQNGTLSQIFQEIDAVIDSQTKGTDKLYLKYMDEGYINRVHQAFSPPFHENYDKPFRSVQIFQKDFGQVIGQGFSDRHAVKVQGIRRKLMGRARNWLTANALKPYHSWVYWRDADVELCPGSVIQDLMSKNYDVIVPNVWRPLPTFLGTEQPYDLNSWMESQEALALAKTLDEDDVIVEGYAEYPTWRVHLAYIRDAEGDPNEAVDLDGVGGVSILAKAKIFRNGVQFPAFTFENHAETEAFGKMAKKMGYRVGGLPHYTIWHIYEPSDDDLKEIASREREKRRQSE
T1 sequence (P39107 93-395 partner): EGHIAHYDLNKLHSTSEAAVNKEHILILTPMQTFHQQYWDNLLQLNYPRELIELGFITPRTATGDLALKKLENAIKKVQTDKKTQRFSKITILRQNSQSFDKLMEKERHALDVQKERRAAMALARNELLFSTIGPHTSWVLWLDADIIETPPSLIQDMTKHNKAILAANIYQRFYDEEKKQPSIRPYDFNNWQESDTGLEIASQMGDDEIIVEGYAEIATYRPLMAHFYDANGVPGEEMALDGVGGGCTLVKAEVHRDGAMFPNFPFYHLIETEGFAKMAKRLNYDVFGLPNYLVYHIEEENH

Nc1nc2c(ncn2[C@@H]2O[C@H](COP(=O)(O)OP(=O)(O)O[C@H]3O[C@H](CO)[C@@H](O)[C@H](O)[C@@H]3O)[C@@H](O)[C@H]2O)c(=O)[nH]1 [GDP-Man]
FACE gel of ANTS-labelled products: ScMnn9, ScVan1, GDP-Man, α-1,6-mannobiose and MnCl2 were incubated
